From patent publication US20220002293A1, “8-CYCLOPENTYL-7-OXO-2-(4-PIPERAZIN-1-YL-PHENYLAMINO)-7, 8-DIHYDRO-PYRIDO [2,3-D]PYRIMIDINE-6-CARBONITRILE AND USES THEREOF IN TREATING PROLIFERATIVE DISORDERS” (ONCONOVA THERAPEUTICS, INC., priority 2018, published 2022)
Read-outs that look alike come from different tables or passages of the source. Each block holds one compound with its values, some of them ahead of it.

Key:
[1] = test system: DU 145 (human prostate cancer); experiment: Cytotoxicity assay (CellTiter-Glo), DU 145; format: cell-based; settings: for IC50: CellTiter-Glo, read-out: Absolute IC50
Excerpt: (§1) Determination of the Half Maximal Inhibition Concentration IC50: • 1.

[2] = test system: HeLa (human cervical cancer); experiment: Cytotoxicity assay (CellTiter-Glo), HeLa; format: cell-based
Excerpt: as §1

[3] = test system: K-562 (human chronic myelogenous leukemia); experiment: Cytotoxicity assay (CellTiter-Glo), K-562; format: cell-based; settings: for IC50: CellTiter-Glo, read-out: Absolute IC50
Excerpt: as §1

[4] = test system: GRANTA-519 (human B Cell lymphoma); experiment: Cytotoxicity assay (CellTiter-Glo), GRANTA-519; settings: for IC50: read-out: Absolute IC50
Excerpt: (§3) The homogeneous assay procedure involves adding a single reagent (CellTiter-Glo® Reagent) directly to cells cultured in serum-supplemented medium. The homogeneous “add-mix-measure” format results in cell lysis and generation of a luminescent signal proportional to the amount of ATP present. The amount of ATP is directly proportional to the number of cells present in culture. The assay generates a luminescent signal, produced by the luciferase reaction.
(§4) Determination of the Half Maximal Inhibition Concentration IC50: • 1. Harvest cells during the logarithmic growth period and count cell number using Count-star. • 2. […] Add 90 μL cell suspensions to two 96-well plates (plates A and B) with the final cell density of 4×10^3 cells/well. (cell concentration is adjusted according to the data base or density optimization assay.)
(§5) Next day: For the Plates of T0 Reading: • 1) Add 10 μL culture medium to each well of plate A for T0 reading. • 2) Equilibrate the plate and its content at RT for approximately 30 min. • 3) Add 50 μL CellTiter-Glo (CTG) reagent to each well. • 4) Mix content for 5 min on an orbital shaker to induce cell lysis. • 5) Allow the plate to incubate at RT for 20 min to stabilize luminescent signal. Note: Uneven luminescent signal within standard plates can be caused by temperature gradients, uneven seeding of cells or edge effects in multiwell plates. • 6) Record luminescence (T0) using EnVision Multi Label Reader.
(§6) Note: Uneven luminescent signal within standard plates can be caused by temperature gradients, uneven seeding of cells or edge effects in multiwall plates. • 9) Record luminescence.
(§7) In order to calculate absolute IC50 (EC50), a dose-response curve was fitted using nonlinear regression model with a sigmoidal dose response. The formula for calculating surviving rate is shown below and the absolute IC50 (EC50) was calculated according to the dose-response curve generated by GraphPad Prism 5.0.
(§8) The surviving rate (%)=(LumTest article−LumMedium control)/(LumNon-treated−LumMedium control)×100%.

ARK5/NUAK1 = molecular target: T1, ARK5/NUAK1 (Homo sapiens, UniProt O60285); experiment: Kinase inhibition, ARK5/NUAK1; format: biochemical; settings: 10 μM ATP; values <1 nM estimated from best curve fitting; read-out: Compound IC50 (M), ARK5/NUAK1
T1 sequence (O60285 1-661): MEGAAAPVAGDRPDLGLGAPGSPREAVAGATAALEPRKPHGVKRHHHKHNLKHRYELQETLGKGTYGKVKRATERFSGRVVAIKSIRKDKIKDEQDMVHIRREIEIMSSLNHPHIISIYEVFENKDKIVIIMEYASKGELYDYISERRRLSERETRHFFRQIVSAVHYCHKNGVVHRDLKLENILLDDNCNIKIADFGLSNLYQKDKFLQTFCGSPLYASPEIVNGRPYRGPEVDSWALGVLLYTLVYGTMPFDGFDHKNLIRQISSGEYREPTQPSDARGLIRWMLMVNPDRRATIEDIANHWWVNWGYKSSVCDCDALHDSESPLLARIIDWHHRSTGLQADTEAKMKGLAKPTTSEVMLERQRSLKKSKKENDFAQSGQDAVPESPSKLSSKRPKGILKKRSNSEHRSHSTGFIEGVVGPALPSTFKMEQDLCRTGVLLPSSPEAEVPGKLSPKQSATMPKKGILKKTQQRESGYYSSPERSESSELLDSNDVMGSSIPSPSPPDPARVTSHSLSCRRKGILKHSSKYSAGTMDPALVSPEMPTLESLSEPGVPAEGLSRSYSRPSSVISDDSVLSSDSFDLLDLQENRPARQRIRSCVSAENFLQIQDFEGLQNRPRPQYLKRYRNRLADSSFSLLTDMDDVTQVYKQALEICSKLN
Procedure: (§2) The compounds in Table 1 were tested for the ability to inhibit the kinase activity of the listed protein kinases.

FLT4/VEGFR3 = FLT4/VEGFR3 (Homo sapiens, UniProt P35916); experiment: Kinase inhibition, FLT4/VEGFR3; format: biochemical; settings: 10 μM ATP; read-out: Compound IC50 (M), FLT4/VEGFR3
Procedure: The compounds in Table 1 were tested for the ability to inhibit the kinase activity of the listed protein kinases. […]

FLT3 = molecular target: T2, FLT3 (Homo sapiens, UniProt P36888); experiment: Kinase inhibition, FLT3; format: biochemical; settings: 10 μM ATP; values <1 nM estimated from best curve fitting; read-out: Compound IC50 (M), FLT3
T2 sequence (P36888 27-993): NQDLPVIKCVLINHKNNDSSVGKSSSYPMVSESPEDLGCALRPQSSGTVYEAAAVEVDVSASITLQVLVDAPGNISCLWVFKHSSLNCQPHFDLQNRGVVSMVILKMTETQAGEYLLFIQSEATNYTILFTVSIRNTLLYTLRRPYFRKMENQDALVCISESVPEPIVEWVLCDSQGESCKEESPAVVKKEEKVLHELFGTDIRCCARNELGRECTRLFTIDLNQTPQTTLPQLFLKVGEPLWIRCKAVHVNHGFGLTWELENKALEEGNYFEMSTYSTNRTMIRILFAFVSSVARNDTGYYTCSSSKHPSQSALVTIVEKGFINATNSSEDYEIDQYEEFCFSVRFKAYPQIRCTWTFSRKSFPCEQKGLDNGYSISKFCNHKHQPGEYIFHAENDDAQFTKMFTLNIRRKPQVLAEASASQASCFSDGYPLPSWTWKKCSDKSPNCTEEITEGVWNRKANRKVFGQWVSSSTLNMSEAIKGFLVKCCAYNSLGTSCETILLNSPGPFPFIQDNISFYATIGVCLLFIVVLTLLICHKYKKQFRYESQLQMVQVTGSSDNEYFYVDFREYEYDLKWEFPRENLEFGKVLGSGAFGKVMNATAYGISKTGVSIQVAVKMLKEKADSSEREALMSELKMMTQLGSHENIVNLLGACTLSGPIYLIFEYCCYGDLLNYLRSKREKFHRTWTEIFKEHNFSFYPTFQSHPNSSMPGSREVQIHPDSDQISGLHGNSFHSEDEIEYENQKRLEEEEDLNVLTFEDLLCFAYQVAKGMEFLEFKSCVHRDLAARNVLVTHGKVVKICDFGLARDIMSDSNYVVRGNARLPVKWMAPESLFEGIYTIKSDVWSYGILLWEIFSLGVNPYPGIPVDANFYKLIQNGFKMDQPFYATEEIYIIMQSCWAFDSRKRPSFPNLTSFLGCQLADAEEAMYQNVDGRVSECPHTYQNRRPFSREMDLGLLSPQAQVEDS
Procedure: as §2

FGFR1 = FGFR1 (Homo sapiens, UniProt P11362); experiment: Kinase inhibition, FGFR1; format: biochemical; settings: 10 μM ATP; read-out: Compound IC50 (M), FGFR1
Procedure: as §2

RET = RET (Homo sapiens, UniProt P07949); experiment: Kinase inhibition, RET; format: biochemical; settings: 10 μM ATP; read-out: Compound IC50 (M), RET
Procedure: as §2

CDK9/cyclin K = CDK9/cyclin K (Homo sapiens, UniProt P50750); experiment: Kinase inhibition, CDK9/cyclin K; format: biochemical; settings: 10 μM ATP; read-out: Compound IC50 (M), CDK9/cyclin K
Procedure: as §2

CDK6/cyclin D3 = CDK6/cyclin D3 (Homo sapiens, UniProt Q00534); experiment: Kinase inhibition, CDK6/cyclin D3; format: biochemical; settings: 10 μM ATP; read-out: Compound IC50 (M), CDK6/cyclin D3
Procedure: as §2

FYN = FYN (Homo sapiens, UniProt P06241); experiment: Kinase inhibition, FYN; format: biochemical; settings: 10 μM ATP; read-out: Compound IC50 (M), FYN
Procedure: as §2

ABL1 = ABL1 (Homo sapiens, UniProt P00519); experiment: Kinase inhibition, ABL1; format: biochemical; settings: 10 μM ATP; read-out: Compound IC50 (M), ABL1
Procedure: as §2

CDK6/cyclin D1 = CDK6/cyclin D1 (Homo sapiens, UniProt Q00534); experiment: Kinase inhibition, CDK6/cyclin D1; format: biochemical; settings: 10 μM ATP; values <1 nM estimated from best curve fitting; read-out: Compound IC50 (M), CDK6/cyclin D1
Procedure: as §2

PDGFRb = PDGFRb (Homo sapiens, UniProt P09619); experiment: Kinase inhibition, PDGFRb; format: biochemical; settings: 10 μM ATP; read-out: Compound IC50 (M), PDGFRb
Procedure: as §2

[5] = test system: GRANTA-519 (human B Cell lymphoma)
Excerpt: as §3, §4, §5, §6, §7, §8

CDK4/cyclin D1 = CDK4/cyclin D1 (Homo sapiens, UniProt P11802); experiment: Kinase inhibition, CDK4/cyclin D1; format: biochemical; settings: 10 μM ATP; read-out: Compound IC50 (M), CDK4/cyclin D1
Procedure: as §2

PKG2/PRKG2 = molecular target: T3, PKG2/PRKG2 (Homo sapiens, UniProt Q13237); experiment: Kinase inhibition, PKG2/PRKG2; format: biochemical; settings: 10 μM ATP; read-out: Compound IC50 (M), PKG2/PRKG2
T3 sequence (Q13237 1-762): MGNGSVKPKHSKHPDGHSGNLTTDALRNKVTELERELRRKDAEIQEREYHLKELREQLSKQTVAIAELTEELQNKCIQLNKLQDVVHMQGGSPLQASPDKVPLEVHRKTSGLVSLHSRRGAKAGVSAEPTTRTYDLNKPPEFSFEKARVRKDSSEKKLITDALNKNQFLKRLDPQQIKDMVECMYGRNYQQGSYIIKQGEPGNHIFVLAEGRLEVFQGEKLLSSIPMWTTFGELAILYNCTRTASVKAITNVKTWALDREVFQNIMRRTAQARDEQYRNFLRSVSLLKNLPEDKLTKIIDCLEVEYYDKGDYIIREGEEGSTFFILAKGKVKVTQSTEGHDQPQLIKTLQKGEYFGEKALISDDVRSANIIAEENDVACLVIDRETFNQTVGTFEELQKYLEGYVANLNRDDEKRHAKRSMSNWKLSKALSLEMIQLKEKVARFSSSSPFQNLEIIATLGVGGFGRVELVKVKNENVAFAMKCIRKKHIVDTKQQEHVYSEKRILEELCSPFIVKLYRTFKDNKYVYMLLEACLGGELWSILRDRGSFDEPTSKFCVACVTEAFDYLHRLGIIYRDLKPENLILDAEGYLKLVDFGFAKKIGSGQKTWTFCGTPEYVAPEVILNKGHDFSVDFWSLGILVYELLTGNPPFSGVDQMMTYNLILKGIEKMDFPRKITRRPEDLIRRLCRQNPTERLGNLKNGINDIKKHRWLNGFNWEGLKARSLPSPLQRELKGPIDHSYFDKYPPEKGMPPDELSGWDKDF
Procedure: as §2

CDK4/cyclin D3 = CDK4/cyclin D3 (Homo sapiens, UniProt P11802); experiment: Kinase inhibition, CDK4/cyclin D3; format: biochemical; settings: 10 μM ATP; read-out: Compound IC50 (M), CDK4/cyclin D3
Procedure: as §2

Chain of FLT4/VEGFR3 (P35916 25-1363): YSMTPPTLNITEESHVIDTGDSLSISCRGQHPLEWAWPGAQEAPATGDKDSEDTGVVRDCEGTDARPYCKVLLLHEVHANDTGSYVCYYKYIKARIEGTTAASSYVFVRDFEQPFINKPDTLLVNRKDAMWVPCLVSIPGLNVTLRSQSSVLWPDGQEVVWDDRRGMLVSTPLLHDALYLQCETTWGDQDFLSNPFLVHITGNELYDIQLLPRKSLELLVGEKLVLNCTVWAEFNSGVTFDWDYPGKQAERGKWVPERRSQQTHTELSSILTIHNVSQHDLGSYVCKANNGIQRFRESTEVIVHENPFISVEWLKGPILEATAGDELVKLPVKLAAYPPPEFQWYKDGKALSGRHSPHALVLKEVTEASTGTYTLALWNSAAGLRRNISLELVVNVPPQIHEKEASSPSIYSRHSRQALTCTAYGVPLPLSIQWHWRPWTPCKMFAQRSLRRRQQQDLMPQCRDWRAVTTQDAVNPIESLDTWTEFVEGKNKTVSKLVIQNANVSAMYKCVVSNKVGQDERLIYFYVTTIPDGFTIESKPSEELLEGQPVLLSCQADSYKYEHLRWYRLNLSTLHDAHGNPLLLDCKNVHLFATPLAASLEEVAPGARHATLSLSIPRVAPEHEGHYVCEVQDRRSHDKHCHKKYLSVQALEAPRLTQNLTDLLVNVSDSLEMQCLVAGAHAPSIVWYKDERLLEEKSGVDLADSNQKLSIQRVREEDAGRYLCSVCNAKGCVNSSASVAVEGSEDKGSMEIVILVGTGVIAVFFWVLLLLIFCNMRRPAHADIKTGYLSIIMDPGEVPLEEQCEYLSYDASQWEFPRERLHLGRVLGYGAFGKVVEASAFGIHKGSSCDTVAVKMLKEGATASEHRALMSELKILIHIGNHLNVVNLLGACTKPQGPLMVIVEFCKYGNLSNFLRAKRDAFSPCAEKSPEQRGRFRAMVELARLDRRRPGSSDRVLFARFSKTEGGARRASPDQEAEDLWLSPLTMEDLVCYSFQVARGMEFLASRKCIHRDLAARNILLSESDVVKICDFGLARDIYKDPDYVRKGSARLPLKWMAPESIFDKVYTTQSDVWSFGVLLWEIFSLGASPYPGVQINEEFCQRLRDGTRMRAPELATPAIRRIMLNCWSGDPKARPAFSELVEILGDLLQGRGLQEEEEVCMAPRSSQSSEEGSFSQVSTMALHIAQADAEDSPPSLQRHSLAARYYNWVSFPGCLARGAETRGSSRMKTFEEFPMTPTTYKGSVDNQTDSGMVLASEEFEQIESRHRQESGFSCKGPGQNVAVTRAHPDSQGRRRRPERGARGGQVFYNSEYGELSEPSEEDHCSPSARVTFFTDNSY
Chain of PDGFRb (P09619 33-1106): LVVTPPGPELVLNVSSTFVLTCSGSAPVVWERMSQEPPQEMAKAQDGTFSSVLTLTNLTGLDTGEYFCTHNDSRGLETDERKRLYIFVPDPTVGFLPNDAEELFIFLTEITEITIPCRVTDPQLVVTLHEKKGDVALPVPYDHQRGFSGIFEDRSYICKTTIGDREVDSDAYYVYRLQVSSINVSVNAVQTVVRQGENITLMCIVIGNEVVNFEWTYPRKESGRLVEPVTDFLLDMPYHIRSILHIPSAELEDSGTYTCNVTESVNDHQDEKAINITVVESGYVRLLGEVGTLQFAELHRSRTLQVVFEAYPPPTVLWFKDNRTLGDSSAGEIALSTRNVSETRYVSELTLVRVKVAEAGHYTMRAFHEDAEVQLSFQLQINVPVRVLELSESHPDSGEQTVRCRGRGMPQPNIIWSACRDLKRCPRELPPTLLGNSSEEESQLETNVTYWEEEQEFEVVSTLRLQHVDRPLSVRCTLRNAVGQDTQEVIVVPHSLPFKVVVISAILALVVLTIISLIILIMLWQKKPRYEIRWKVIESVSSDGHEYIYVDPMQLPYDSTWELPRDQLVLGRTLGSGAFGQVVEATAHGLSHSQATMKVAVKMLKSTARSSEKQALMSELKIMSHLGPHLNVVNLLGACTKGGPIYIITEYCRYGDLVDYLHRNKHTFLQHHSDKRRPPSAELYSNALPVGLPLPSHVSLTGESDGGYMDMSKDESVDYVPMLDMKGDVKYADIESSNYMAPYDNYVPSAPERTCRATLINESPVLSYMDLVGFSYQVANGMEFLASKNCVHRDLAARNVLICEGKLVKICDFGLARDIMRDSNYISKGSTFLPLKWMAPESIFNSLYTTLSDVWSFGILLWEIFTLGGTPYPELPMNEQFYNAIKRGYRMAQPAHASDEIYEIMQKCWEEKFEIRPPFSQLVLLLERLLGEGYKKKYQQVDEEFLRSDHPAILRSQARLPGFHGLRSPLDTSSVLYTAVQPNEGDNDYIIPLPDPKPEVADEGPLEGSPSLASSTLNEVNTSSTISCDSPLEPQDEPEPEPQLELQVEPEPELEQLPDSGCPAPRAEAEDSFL
Chain of CDK4/cyclin D1 (P11802 whole entry): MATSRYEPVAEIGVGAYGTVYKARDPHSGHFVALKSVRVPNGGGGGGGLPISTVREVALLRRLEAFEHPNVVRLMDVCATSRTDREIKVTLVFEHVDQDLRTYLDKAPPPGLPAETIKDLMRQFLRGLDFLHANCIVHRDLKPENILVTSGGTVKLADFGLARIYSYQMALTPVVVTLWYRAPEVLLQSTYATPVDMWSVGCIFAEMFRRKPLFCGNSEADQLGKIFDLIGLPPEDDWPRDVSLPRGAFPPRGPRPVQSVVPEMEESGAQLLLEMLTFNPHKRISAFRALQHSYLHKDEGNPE
Chain of CDK4/cyclin D1 (P24385 whole entry partner): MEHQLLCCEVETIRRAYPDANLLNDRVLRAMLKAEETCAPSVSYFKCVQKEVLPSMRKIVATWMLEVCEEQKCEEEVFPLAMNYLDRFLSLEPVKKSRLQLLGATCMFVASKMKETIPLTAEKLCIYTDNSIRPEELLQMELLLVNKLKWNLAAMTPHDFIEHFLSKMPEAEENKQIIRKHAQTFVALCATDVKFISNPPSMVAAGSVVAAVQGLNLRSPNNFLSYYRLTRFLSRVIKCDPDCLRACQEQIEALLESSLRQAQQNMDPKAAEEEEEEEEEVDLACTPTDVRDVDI
Chain of CDK4/cyclin D3 (P11802 whole entry): as the sequence (P11802 whole entry) above
Chain of CDK4/cyclin D3 (P30281 whole entry partner): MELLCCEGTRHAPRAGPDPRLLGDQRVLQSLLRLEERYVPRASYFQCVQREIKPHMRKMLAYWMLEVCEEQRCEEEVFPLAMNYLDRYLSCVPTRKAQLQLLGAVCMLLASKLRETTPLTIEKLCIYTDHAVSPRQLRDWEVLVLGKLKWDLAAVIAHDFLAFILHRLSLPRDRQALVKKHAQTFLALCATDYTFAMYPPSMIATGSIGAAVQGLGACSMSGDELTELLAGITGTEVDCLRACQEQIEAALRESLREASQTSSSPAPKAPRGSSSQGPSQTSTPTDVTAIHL
Chain of FGFR1 (P11362 22-822): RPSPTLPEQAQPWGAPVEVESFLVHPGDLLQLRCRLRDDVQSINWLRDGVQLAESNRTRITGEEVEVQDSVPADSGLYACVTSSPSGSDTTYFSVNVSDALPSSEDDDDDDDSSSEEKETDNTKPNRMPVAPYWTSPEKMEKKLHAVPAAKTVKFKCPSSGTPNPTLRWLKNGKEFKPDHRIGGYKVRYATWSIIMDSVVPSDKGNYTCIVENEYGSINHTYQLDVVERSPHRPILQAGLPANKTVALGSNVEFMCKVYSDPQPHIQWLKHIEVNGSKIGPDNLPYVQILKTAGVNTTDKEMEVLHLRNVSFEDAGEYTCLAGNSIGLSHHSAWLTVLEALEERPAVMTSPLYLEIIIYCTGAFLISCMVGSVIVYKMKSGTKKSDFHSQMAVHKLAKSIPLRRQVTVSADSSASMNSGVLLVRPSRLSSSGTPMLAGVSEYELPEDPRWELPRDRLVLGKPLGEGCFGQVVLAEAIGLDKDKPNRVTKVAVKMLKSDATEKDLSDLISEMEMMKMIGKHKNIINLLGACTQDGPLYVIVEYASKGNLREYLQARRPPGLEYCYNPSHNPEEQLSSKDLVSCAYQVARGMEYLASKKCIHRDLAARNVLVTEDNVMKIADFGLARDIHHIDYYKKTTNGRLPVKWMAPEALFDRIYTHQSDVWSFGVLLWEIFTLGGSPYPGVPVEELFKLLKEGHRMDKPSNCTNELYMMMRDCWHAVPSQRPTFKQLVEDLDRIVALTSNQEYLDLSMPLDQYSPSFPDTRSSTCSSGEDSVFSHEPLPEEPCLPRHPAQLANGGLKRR
Chain of CDK6/cyclin D1 (Q00534 whole entry): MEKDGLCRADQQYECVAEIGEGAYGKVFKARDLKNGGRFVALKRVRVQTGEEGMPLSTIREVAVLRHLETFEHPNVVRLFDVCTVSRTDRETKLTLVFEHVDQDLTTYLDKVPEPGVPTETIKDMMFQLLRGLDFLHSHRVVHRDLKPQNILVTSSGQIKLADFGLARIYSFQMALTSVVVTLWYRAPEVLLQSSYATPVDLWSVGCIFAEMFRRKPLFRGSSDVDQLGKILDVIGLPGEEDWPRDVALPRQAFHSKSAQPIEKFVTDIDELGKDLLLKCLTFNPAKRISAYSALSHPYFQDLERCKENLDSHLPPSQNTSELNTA
Chain of CDK6/cyclin D1 (P24385 whole entry partner): as the sequence (P24385 whole entry partner) above
Chain of CDK6/cyclin D3 (Q00534 whole entry): as the sequence (Q00534 whole entry) above
Chain of CDK6/cyclin D3 (P30281 whole entry partner): as the sequence (P30281 whole entry partner) above

SMILES: N.N.[Cl][Pt][Cl] [Cisplatin, reference compound]
IC50 ([1]; DU 145, 72 h): 960 nM | % inhibition at top conc. ([1]; DU 145, 72 h, top working concentration 100 μM): 95.44% | % inhibition at top conc. ([2]; HeLa, 72 h, top working concentration 100 μM): 99.18% | IC50 ([3]; K-562, 72 h): 3760 nM | % inhibition at top conc. ([3]; K-562, 72 h, top working concentration 100 μM): 98.74% | % inhibition at top conc. ([4]; GRANTA-519, 72 h, top working concentration 100 μM): 77.25% | IC50 ([4]; GRANTA-519, 72 h, CellTiter-Glo): 1680 nM

IC50 (ARK5/NUAK1): 1.91e-06 M | IC50 (FLT4/VEGFR3): 1.72e-05 M
SMILES: CC(=O)c1c(C)c2cnc(Nc3ccc(N4CCNCC4)cn3)nc2n(C2CCCC2)c1=O [Palbociclib, palbociclib, reference compound]

IC50 (FLT3): 4.25e-09 M | IC50 (FGFR1): 3.09e-08 M | IC50 (RET): 8.13e-09 M | IC50 (CDK9/cyclin K): 8.06e-09 M | IC50 (ARK5/NUAK1): 2.28e-09 M | IC50 (CDK6/cyclin D3): 2.97e-09 M | IC50 (FYN): 3.29e-08 M | IC50 (ABL1): 2.01e-08 M | IC50 (CDK6/cyclin D1): < 1e-09 M | IC50 (PDGFRb): 6.12e-09 M | IC50 (CDK4/cyclin D1): < 1e-09 M | IC50 (PKG2/PRKG2): > 0.0001 M | IC50 (FLT4/VEGFR3): 6.97e-09 M | IC50 (CDK4/cyclin D3): 2.77e-09 M
SMILES: N#Cc1cc2cnc(Nc3ccc(N4CCNCC4)cc3)nc2n(C2CCCC2)c1=O [ON 1232580, 8-Cyclopentyl-7-oxo-2-(4-piperazin-1-yl-phenylamino)-7,8-dihydro-pyrido[2,3-d]pyrimidine-6-carbonitrile]
Cytotoxicity, result in words ([1]; DU 145 cells): potent inhibitor | IC50 ([1]; Homo sapiens, DU 145, 72 h): 930 nM | inhibition at 100 µM ([1]; Homo sapiens, DU 145, 72 h, top working concentration 100 μM, read-out: % inhibition at top conc.): 99.9% | Cytotoxicity, result in words ([2]; HeLa cells): potent inhibitor | IC50 ([2]; Homo sapiens, HeLa, 72 h, CellTiter-Glo, read-out: Absolute IC50): 1500 nM | inhibition at 100 µM ([2]; Homo sapiens, HeLa, 72 h, top working concentration 100 μM, read-out: % inhibition at top conc.): 100% | IC50 ([3]; Homo sapiens, K562, K-562, 72 h): 1190 nM | inhibition at 100 µM ([3]; Homo sapiens, K562, K-562, 72 h, top working concentration 100 μM, read-out: % inhibition at top conc.): 100% | Cytotoxicity, result in words ([3]; K-562 cells): potent inhibitor | Cytotoxicity, result in words [5]: potent killer | inhibition at 100 µM ([4]; Homo sapiens, Granta-519, 72 h, read-out: % inhibition at top conc.): 100% | IC50 ([4]; Homo sapiens, Granta-519, 72 h): 400 nM
